Laboratory results: a melting point compilation (Tetko et al.; mined from patent text by program, amines drawn as free bases though some values may be those of a salt)

Row | Compound | melting point [°C]
1 | O=C(O)C(=O)CC(=O)c1cn(Cc2ccc3ccccc3n2)c2ccccc2c1=O | > 300
2 | CCOC(=O)c1cc(C(C)=O)on1 | 67 to 68
3 | O=CNc1cccc2ccccc12 | 134 to 135
4 | CC1S/C(=N/N=C\c2ccc(-c3ncn(-c4ccc(OC(F)(F)F)cc4)n3)cc2)N(c2ccccc2C2CC2)C1=O (configuration not stated) | 112 to 115
5 | Cc1cccc2c(=O)nc(-c3cccc(C(=O)NCCCCCCNC(=O)OC(C)(C)C)n3)sc12 | 171 to 172
6 | N#Cc1cc(-c2nc3cncnc3[nH]2)ccc1Oc1ccc(F)cc1 | > 250
7 | O=S(=O)(CC(F)(F)F)c1nc2cc(Cl)ccc2[nH]1 | 161 to 164
8 | Cc1c(NC(=O)c2ccc(-c3ccc(F)cc3)cc2F)ccc2cc(CN3CCCC3)cnc12 | 176 to 178
9 | CCOC(=O)c1ccc(NC(=O)Cc2csc3nc(C(=O)NCc4cccc(OC)c4)[nH]c(=O)c23)cc1 | 222 to 223
10 | Cc1cccc2c1N(Cc1ccccn1)C(=O)C(NC(=O)Nc1cccc(-c3nnn[nH]3)c1)N=C2c1ccccc1F (configuration not stated) | 174 to 182
11 | COCC1CN(c2ccc(C3CCC(OCCCCC(N)=O)CC3)cc2)C(=O)O1 (racemic) | 72 to 74
12 | CCOC(=O)C(CCC#N)(C(=O)OCC)c1ncc(C)cc1[N+](=O)[O-] | 48 to 49
13 | Cn1c(COc2ccc(CC3SC(=O)NC3=O)cc2)nc2ccc(OCCc3ccc(NC(=O)Nc4ccc(Cl)cc4)cc3)cc21 (configuration not stated) | 157 to 162
14 | Cc1cc(C)c2c(c1O)CCC2=O | 152 to 154
15 | O=[N+]([O-])c1cc(Cn2nnnc2Sc2ccccc2)cc([N+](=O)[O-])c1 | 156 to 158
16 | C=Cc1ccc2[nH]cc(S(=O)(=O)c3ccccc3)c2c1 | 140 to 145
17 | O=C(O)C(=O)c1ccc(OCCCCCOc2ccccc2)cc1 | 69 to 70
18 | Cc1cc(C)cc(C(=O)N2CCN(C(=O)CBr)C(c3ccc(Cl)c(Cl)c3)C2)c1 (racemic) | 68 to 71
19 | COC(=O)c1ccc([C@H](C)NC(C)=O)cc1 | 125 to 127
20 | Clc1ccc2c(Nc3ccc(CNC4CCN(Cc5ccccc5)CC4)cc3)ccnc2c1 | 160 to 164
21 | O=Cc1nn(-c2ccc(Br)cc2)c2c1CCCC2 | 120 to 121
22 | Cc1c(C)c2c(c(C)c1O)CC(CCI)O2 (racemic) | 96 to 97
23 | Cc1nn(C)c2c(Cl)nc(C(C)C)nc12 | 87 to 89
24 | CCCCCCC1C(=O)NC2(C(O)C3CCCCC3)C(=O)OC12C (configuration not stated) | 167
25 | CC(NC(=O)c1sc2ccc(C(F)(F)F)cc2c1O)=C(c1ccccc1)c1ccccc1 | 155 to 160
26 | CCCN(CCC)C(=O)CNc1ccnc(-c2ccccc2)n1 | 74 to 75

Row | Compound | melting point [°C]
27 | Clc1nccc(N2CCC3(CC2)COc2ccccc23)c1Cl | 177
28 | COc1cc(C)c(NCCO)cc1N | 148
29 | O=S(=O)(NCCO)c1ccc(-c2ccc(S(=O)(=O)NCCO)cc2)cc1 | 203 to 206
30 | O=c1c2cc3ncn(CCc4cccc(F)c4)c(=O)c3cc2ncn1CCc1cccc(F)c1 | 250 to 251
31 | CCOc1n[nH]c(=O)n1CC | 115
32 | O=c1c(-c2ccccc2)c[nH]cc1-c1ccccc1 | > 335
33 | NNC(=O)C(Cl)c1cccc(Cl)n1 (configuration not stated) | 176 to 177
34 | O=C(O)c1ccc(C(=O)O)c(-c2nc3ccccc3o2)c1 | 284
35 | Cn1c(C(F)(F)F)nc(-c2ccc(F)cc2)c1-c1ccc(S(C)(=O)=O)cc1 | 187 to 189
36 | COc1ccc(C=CC(=O)Nc2c(CCO)nc3c(C)cc(C)cc3c2-c2ccccc2Cl)cc1OC | 115 to 116
37 | Cc1c(/C=C/C(=O)c2nn(C)c3ccccc23)ncn1C(c1ccccc1)(c1ccccc1)c1ccccc1 | 223 to 225
38 | CCCCCCCCCCCCCCN=C=O | 100 to 104
39 | NC(=O)c1ccc2c(c1)C1(COc3cc4c(cc31)OCCO4)C(=O)N2Cc1ccccn1 (configuration not stated) | 220 to 222
40 | Cc1ccc(C(=O)CCCCCBr)cc1C | 61 to 63
41 | c1ccc(-c2nnc3n2-c2ccccc2Cn2cccc2-3)nc1 | 255 to 257
42 | CCc1cc(O)n2nc(CC)c(C)c2n1 | 287
43 | O=c1cc(CBr)n(Cc2ccccc2)cc1OCCC12CC3CC(CC(C3)C1)C2 | 200 to 203
44 | Cc1sc(-c2ccccc2)nc1COc1cc(COc2ncccc2CC#N)on1 | 103 to 104
45 | CC1(COc2ccc(OCCNCC(O)COc3ccccc3)cc2)OCCO1 (configuration not stated) | 95 to 97
46 | O=C(Oc1cc(/C=C/c2ccc(O)cc2)cc(OC(=O)c2cc(O)c(O)c(O)c2)c1)c1cc(O)c(O)c(O)c1 | 210 to 212
47 | NC(=O)c1cc(OCCNCC(O)COc2ccc(CCOCC3CC3)cc2)ccc1O (configuration not stated) | 149 to 150
48 | Cc1ccc(S(=O)(=O)Nc2ccc(F)cc2[N+](=O)[O-])cc1 | 118
49 | CC1(C)C(=O)Nc2cc3[nH]c(C4CC4)nc3cc21 | 266 to 268
50 | CC(c1ccc(O)cc1)C(CS)C(=O)NC(Cc1ccc(O)cc1)C(=O)O (configuration not stated) | 115
51 | O=C(Cn1nc(-c2ccccc2O)nc1-c1ccccc1O)NC(CO)CO | 212 to 214
52 | CCOC(=O)CCC(=O)NCc1ccc([N+](=O)[O-])cc1 | 104 to 106

Row | Compound | melting point [°C]
53 | NC(=O)c1ccc(-c2cccc3cc(Cc4cccc(C(F)(F)F)c4)sc23)cc1 | 175 to 176
54 | COc1c(F)c(F)c(-c2c3ccccc3c(-c3ccccc3)c3ccccc23)c(F)c1F | 153 to 154
55 | COc1cccc2c1C13CCN(C(=O)C4CC4)C(C2)C1(O)CCC(=O)C3 (configuration not stated) | 223 to 225
56 | COc1ccc(N2CCN(c3c(C)c(C)c4c(c3C)C(c3ccccc3)C(C)(C)O4)CC2)cc1 (configuration not stated) | 126 to 128
57 | CC(=O)Oc1cc2nc(-c3ccccc3)nn2c2ccccc12 | 200 to 202
58 | CN(C(=O)C1CCCCC1)c1ccccc1C(c1ccc(O)cc1)c1ccc(O)cc1 | 250 to 252
59 | COc1nc(C)c2c(c1C#N)CCCC2 | 116
60 | COc1cc(C)cc(S(=O)(=O)c2cccc(N)c2C#N)c1 | 166 to 168
61 | CCOC1(NC(=O)c2ccccc2)CC1 | 108 to 109
62 | CC(=O)c1ccc(OCCNC(=O)OCc2ccccc2)cc1 | 80 to 81
63 | COc1cccc2c(=O)cc(C3CC3C(=O)O)oc12 (configuration not stated) | 193 to 196
64 | COc1ccc(N=C(NC(=S)NCc2cccnc2)c2ccccc2)cc1 | 142 to 143
65 | CCCCNC(=O)CC(=O)Nc1ccc(Br)cc1C | 123 to 125
66 | CC1(c2ccccc2)OC(=O)C(=O)CC1=O (configuration not stated) | 142 to 144
67 | Cn1c2cc(Cl)ccc2c(=O)c2cccn21 | 172 to 173
68 | O=[N+]([O-])c1cccc(C=NC2CCOc3ccccc32)c1 (configuration not stated) | 117 to 118
69 | O=C(NNC(=S)NNC(=O)c1ccccc1)c1ccccc1 | 177 to 179
70 | Nc1cccc(Sc2ccc3c(c2)OCC(=O)N3)c1 | 181 to 182
71 | COc1ccc(-c2cnc3c(-c4cc(-c5ccccc5)cs4)cnn3c2O)cc1Br | > 300
72 | CN1CCCN=C1C(Br)(Br)[N+](=O)[O-] | 106 to 107
73 | CCCOc1cc2nc(Cl)nc(Cl)c2cc1OC | 118 to 120
74 | Cc1oc(-c2ccccc2)nc1COc1ccc(COc2ccccc2CC(=O)O)cc1 | 153 to 154
75 | N#CCN1C(=O)C2(COc3cc4c(cc32)OCO4)c2ccccc21 (configuration not stated) | 170 to 172
76 | O=C(Nc1cccnc1)C(Cl)(Cl)Cl | 149 to 151
77 | Cc1oc(-c2ccc(C(C)C)cc2)nc1CCOc1ccc(C[C@H](OCC(F)(F)F)C(=O)O)c2sccc12 | 181 to 182
78 | CC1(C)CCC(C)(C)c2cc(OCc3ccc(CC(N)=O)cc3)ccc21 | 202 to 205

Row | Compound | melting point [°C]
79 | CC(=O)Nc1nc(CCc2ccc(CCl)cc2)c(Cc2ccc(S(C)(=O)=O)cc2)s1 | 202 to 203
80 | COc1cc(COc2nn(CCO)cc2CO)ccc1OCc1nc(-c2ccco2)oc1C | 120 to 122
81 | CCOC(=O)c1c(-c2ccccc2)n(C)c(-c2ccccc2)cc1=O | 177 to 179
82 | COCCNc1ccc(S(=O)(=O)Oc2ccc(N)c([N+](=O)[O-])c2)cc1 | 105
83 | CN(C)C(=O)n1nc(C(C)(C)C)nc1SC(NS(C)(=O)=O)NS(C)(=O)=O | 83 to 85
84 | O=C(O)Cc1ccc(OCCCc2cc(-c3ccc(C(F)(F)F)cc3)no2)cc1 | 127 to 128
85 | COc1c(OC(C)=O)c(C)c(CCCC(=O)O)c(OC(C)=O)c1OC | 125 to 127
86 | COc1cccc(N2CCN(CC(O)COC(c3ccccc3)c3cccc4ccccc34)CC2)c1 (configuration not stated) | 84
87 | N#Cc1cccc(-c2cc(-c3ccc(C#N)cc3[N+](=O)[O-])no2)c1 | 235 to 238
88 | O=C(O)C1=CSC2C(=Cc3ccc4nc5n(c4c3)CCCS5)C(=O)N12 (configuration not stated) | > 250
89 | COC(=O)c1ccc(-c2ccc(Br)c3nsnc23)cc1 | 188 to 192
90 | Cc1nc2cccc(OC3CCN(C(=O)C(C)C)CC3)c2c(N)c1C(=O)O | 184 to 186
91 | CCCN(CCC)[C@H]1Cc2c[nH]c3ccc(-c4ccno4)c(c23)C1 | 126 to 127
92 | CC(C)(C)OC(=O)N1CC(c2ccc(N=C(c3ccccc3)c3ccccc3)nc2)C1 | 104 to 105
93 | COC(=O)N(C)c1cc(C(C)(C)C)no1 | 70.5 to 71.5
94 | C(=C(/c1ccccc1)n1c2ccccc2c2ccccc21)/c1ccccc1 | 160 to 162
95 | O=[N+]([O-])c1cccc(CBr)c1CBr | 68 to 70
96 | COc1cc2[nH]cc(C(=O)C(Cl)(Cl)Cl)c2cc1Br | 185 to 190
97 | O=S(=O)(c1ccc(Cl)cc1)N1CCCC1c1cccc(Cl)c1 (racemic) | 99
98 | C=C(C)C=COCC1CCn2c(nc3ccccc32)S1 (configuration not stated) | 56 to 60
99 | COc1ccc(CCc2cc(OC)c(OC)c(OC)c2)cc1 | 73 to 75
100 | NC(=O)CCCCC1CCCCC1 | 121 to 122
101 | CC1(C)C(=O)Nc2ccc(C3=NNC(=O)C4CCC34)cc21 (configuration not stated) | 315 to 317
102 | Cn1c(=O)c2c(Br)cccc2n2cnc(-c3nc(C4CC4)no3)c12 | 246 to 247
